Source: patent publication US20070054916A1, “Aryl nitrogen-containing bicyclic compounds and methods of use” (Amgen Inc., priority 2004, published 2007)

Legend:
LCK KD GST (225-509) = LCK KD GST (225-509) (Homo sapiens, UniProt P06239); test: LCK Homogenous Time Resolved Flourescent (HTRF) kinase assay; details: average IC50 value in the human HTRF assay for the inhibition of the Lck kinase enzyme
[1] = system: production of TNF by monocytes activated with bacterial lipopolysaccharide (LPS); test: Lipopolysaccharide-activated monocyte TNF production assay; type: cell-based; details: Homo sapiens, read-out: IC50 values in the monocyte assay (LPS induced TNF release)
Summary of the method: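 Adherent human PBMC-derived monocytes (~70%) in DMEM/2% FCS were pre-incubated 60 min with nine two-fold compound dilutions, then stimulated with E. coli K532 LPS (added as 30 ng/ml solution) for 4 h at 37 °C. Supernatant TNF-α was measured by sandwich ELISA. IC50 was taken from a polynomial fit of TNF versus compound concentration.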

Chain of LCK KD GST (225-509) (P06239 225-509): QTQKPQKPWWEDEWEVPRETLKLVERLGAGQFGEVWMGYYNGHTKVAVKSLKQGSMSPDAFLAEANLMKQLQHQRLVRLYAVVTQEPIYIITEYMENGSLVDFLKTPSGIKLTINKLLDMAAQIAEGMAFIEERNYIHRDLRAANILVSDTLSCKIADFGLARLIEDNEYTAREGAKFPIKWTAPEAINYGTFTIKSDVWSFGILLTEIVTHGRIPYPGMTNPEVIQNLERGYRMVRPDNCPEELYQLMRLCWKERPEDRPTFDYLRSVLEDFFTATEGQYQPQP

Question: How did the IC50 (LCK KD GST (225-509)) turn out when `CNc1ncc2cc(-c3cc(C(=O)Nc4ccc(F)c(C(F)(F)F)c4)ccc3C)ccc2n1` [Example 16, N-(4-fluoro-3-(trifluoromethyl)phenyl)-4-methyl-3-(2-(methylamino)-6-quinazolinyl)benzamide] was run?
Answer: The IC50 was no more than 1000 nM.

Question: And the IC50 [1]?
Answer: Its IC50 is no more than 25000 nM.

Question: Which IC50 (LCK KD GST (225-509)) does the source give for `CN(C)c1cccc2c(S(=O)(=O)Nc3cccc(-c4ccc5nc(N)ncc5c4)c3)cccc12` [Example 55, N-(3-(2-amino-6-quinazolinyl)phenyl)-5-(dimethylamino)-1-naphthalenesulfonamide] here?
Answer: The IC50 was no more than 1000 nM.

Question: And the IC50 [1]?
Answer: The IC50 was no more than 25000 nM.

Question: Which results are given for `CNc1ncc2cc(-c3cc(C(=O)Nc4ccc(OC)c(C(F)(F)F)c4)ccc3C)cnc2n1` [Example 184, 4-methyl-3-(2-(methylamino)pyrido [2,3-d]pyrimidin-6-yl)-N-(4-(methyloxy)-3-(trifluoromethyl)phenyl)benzamide]?
Answer: IC50 (LCK KD GST (225-509)): ≤ 1000 nM; IC50 [1]: ≤ 25000 nM

Question: Which results are given for `Cc1ccc(C(=O)Nc2cccc(NC(=O)CN3CCOCC3)c2C)cc1-c1ccc2nc(N)ncc2c1` [Example 56, 3-(2-Amino-6-quinazolinyl)-4-methyl-N-(2-methyl-3-((4-morpholinylacetyl)amino)phenyl)benzamide]?
Answer: IC50 (LCK KD GST (225-509)): ≤ 1000 nM; IC50 [1]: ≤ 25000 nM

Question: What does the source list for `CNc1ncc2cc(-c3cccc(C(=O)Nc4cccc(OC(F)(F)F)c4)c3C)cnc2n1` [Example 183, 2-methyl-3-(2-(methylamino)pyrido [2,3-d]pyrimidin-6-yl)-N-(3-((trifluoromethyl)oxy)phenyl)benzamide]?
Answer: IC50 (LCK KD GST (225-509)): ≤ 1000 nM; IC50 [1]: ≤ 25000 nM

Question: For `COc1c(C(=O)Nc2cccc(C(F)(F)F)c2)cc(-c2ccc3nc(N)ncc3c2)c(OC)c1OC` [Example 109, 5-(2-amino-6-quinazolinyl)-2,3,4-tris(methyloxy)-(trifluoromethyl)-N-(3-phenyl)benzamide], which IC50 (LCK KD GST (225-509)) is on record?
Answer: Its IC50 is no more than 1000 nM.

Question: And the IC50 [1]?
Answer: The IC50 was no more than 25000 nM.

Question: How did the IC50 (LCK KD GST (225-509)) turn out when `COc1c(C(=O)Nc2cc(C(F)(F)F)ccc2N(C)CCCN(C)C)cc(-c2ccc3nc(N)ncc3c2)c(OC)c1OC` [Example 110, 5-(2-amino-6-quinazolinyl)-N-(2-((3-(dimethylamino)propyl)methyl)amino-5-(trifluoromethyl)phenyl)-2,3,4-tris(methyloxy)benzamide] was run?
Answer: Its IC50 is no more than 1000 nM.

Question: And the IC50 [1]?
Answer: Its IC50 is no more than 25000 nM.

Question: Which IC50 (LCK KD GST (225-509)) does the source give for `CN(C)CCCN(C)c1ccc(C(F)(F)F)cc1NC(=O)c1cc(-c2ccc3nc(N)ncc3c2)cc2c1OCC2` [Example 96, 5-(2-amino-6-quinazolinyl)-N-(2-((3-(dimethylamino)propyl)(methyl)amino)-5-(trifluoromethyl)phenyl)-2,3-dihydro-1-benzofuran-7-carboxamide] here?
Answer: The IC50 was no more than 1000 nM.
